What all share (assay type): functional
The target of assay [1] is Serine/threonine-protein kinase PLK3 (Homo sapiens, UniProt Q9H4B4).
In assay [2] the target is Homeodomain-interacting protein kinase 2 (Homo sapiens, UniProt Q9H2X6).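 Further: measured within a kinome-wide kinase profiling panel, HIPK2 being one panel member.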
In assay [3] the target is Dual specificity tyrosine-phosphorylation-regulated kinase 1B (Homo sapiens, UniProt Q9Y463). As to the kind of experiment: Navigating the Kinome. Panel member name: DYRK1B.
Chain of Dual specificity tyrosine-phosphorylation-regulated kinase 1B (Q9Y463 whole entry): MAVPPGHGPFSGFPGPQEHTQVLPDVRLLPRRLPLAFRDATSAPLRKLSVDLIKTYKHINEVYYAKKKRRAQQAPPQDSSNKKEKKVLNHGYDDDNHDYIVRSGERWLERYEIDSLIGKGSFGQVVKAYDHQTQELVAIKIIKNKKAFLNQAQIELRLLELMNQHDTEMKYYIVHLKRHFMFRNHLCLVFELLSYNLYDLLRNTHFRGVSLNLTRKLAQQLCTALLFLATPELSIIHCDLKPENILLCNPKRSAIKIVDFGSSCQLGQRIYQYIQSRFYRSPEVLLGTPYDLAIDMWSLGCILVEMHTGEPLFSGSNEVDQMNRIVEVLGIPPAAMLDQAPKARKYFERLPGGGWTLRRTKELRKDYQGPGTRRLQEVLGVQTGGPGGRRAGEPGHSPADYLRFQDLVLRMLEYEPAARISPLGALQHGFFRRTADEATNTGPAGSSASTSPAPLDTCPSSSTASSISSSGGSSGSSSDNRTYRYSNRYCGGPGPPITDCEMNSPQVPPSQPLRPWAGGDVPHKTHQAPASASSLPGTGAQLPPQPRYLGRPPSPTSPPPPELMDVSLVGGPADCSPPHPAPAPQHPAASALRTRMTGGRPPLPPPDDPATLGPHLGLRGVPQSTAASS
Assay [4] has as its target Dual specificity mitogen-activated protein kinase kinase 1 (Homo sapiens, UniProt Q02750). The assay is described as follows: Navigating the Kinome. Panel member name: MAP2K1.
Assay [5] addresses Dual specificity mitogen-activated protein kinase kinase 2 (Homo sapiens, UniProt P36507). The assay is described as follows: Navigating the Kinome. Panel member name: MAP2K2.
Assay [6] concerns the target Rho-associated protein kinase 1 (Homo sapiens, UniProt Q13464).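 Further: measured within a broad kinome-wide panel profiling many kinases.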
Assay [7] has as its target T1, Caspase-3 (Homo sapiens, UniProt P42574).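 Further: Dose-response selectivity test against caspase-3 for candidate inhibitors of sentrin-specific proteases (SENPs).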
T1 sequence (P42574 whole entry): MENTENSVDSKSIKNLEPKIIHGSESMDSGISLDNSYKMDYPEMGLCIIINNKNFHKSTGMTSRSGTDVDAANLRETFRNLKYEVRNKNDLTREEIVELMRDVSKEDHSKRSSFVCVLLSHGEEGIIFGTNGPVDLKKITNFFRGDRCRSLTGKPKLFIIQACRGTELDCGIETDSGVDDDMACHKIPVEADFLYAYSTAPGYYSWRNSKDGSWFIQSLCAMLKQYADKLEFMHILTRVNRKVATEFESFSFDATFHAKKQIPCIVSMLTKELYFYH

A short description of assay [8]: Luminescence Cell-Based Dose Confirmation HTS to Identify Activators of 5'UTR Stem-Loop Driven Alpha-Synuclein mRNA Translation in H4 Neuroglioblastoma Cells. [Related pubchem assays: 1829 (Project Summary), 1814 (Primary HTS)].
The target of assay [9] is T2, Sentrin-specific protease 7 (Homo sapiens, UniProt Q9BQF6).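 Further: Luminescence-based dose-response confirmation of ultra-high-throughput screening hits, measuring inhibition of SENP7.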
T2 sequence (Q9BQF6 whole entry): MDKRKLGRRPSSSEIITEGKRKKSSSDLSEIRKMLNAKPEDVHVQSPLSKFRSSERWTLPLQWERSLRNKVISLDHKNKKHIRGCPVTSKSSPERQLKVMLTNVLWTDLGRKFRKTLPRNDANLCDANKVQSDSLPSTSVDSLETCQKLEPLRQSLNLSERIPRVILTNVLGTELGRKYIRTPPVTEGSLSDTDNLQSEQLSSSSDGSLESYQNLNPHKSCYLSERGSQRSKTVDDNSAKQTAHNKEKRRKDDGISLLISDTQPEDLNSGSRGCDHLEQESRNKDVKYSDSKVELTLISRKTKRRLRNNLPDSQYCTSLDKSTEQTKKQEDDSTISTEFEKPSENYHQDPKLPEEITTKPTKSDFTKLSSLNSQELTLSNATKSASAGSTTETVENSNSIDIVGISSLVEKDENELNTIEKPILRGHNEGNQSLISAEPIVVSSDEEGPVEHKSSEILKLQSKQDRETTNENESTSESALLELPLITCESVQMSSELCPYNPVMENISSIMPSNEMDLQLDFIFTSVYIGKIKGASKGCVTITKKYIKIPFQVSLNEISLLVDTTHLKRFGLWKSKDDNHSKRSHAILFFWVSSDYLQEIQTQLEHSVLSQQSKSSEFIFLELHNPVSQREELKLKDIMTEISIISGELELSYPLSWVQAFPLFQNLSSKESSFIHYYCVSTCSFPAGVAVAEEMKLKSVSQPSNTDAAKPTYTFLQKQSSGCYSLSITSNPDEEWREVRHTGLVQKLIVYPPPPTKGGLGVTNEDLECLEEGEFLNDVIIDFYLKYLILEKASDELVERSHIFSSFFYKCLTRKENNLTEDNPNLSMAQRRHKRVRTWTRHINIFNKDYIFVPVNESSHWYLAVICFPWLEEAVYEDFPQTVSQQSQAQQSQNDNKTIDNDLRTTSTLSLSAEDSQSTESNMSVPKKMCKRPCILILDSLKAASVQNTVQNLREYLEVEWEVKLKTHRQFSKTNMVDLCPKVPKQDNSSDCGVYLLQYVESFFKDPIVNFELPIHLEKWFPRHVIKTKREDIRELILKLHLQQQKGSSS

The target in assay [10] is Serine/threonine-protein kinase PLK4 (Homo sapiens, UniProt O00444).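 Further: PLK4 measured as one member of a kinome-wide kinase profiling panel.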
Assay [11] addresses Serine/threonine-protein kinase 3 (Homo sapiens, UniProt Q13188).
Assay [12] has as its target T3, Tyrosine-protein kinase JAK3 (Homo sapiens, UniProt P52333).
T3 sequence (P52333 whole entry): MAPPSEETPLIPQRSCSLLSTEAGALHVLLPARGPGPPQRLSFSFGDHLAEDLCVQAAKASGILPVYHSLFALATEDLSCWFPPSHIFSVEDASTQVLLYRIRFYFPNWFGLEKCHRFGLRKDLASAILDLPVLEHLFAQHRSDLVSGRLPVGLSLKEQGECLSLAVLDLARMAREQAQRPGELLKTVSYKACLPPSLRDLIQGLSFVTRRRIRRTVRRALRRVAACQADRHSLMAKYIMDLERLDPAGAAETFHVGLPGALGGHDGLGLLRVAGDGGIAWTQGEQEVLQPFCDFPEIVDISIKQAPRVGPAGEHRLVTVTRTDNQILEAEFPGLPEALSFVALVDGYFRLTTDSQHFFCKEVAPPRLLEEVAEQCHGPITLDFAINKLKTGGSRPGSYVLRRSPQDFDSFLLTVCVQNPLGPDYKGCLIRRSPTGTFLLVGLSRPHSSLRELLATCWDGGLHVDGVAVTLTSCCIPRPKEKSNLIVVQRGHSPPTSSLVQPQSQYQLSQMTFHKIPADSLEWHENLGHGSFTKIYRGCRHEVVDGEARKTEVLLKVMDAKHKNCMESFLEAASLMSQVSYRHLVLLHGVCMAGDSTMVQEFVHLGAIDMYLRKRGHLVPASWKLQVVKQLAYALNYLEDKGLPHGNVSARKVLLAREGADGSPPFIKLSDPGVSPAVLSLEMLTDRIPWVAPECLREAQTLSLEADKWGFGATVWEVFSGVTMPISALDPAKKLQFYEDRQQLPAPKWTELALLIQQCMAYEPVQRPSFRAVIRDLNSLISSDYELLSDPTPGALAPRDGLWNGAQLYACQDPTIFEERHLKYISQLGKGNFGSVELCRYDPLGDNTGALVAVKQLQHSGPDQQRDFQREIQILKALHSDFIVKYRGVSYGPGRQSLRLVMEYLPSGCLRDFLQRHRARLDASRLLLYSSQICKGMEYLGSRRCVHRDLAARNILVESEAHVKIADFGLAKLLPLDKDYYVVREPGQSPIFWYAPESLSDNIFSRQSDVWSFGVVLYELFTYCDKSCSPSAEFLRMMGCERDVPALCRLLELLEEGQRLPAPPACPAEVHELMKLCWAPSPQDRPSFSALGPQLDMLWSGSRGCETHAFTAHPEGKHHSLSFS

The source of these data is ChEMBL document CHEMBL1201862, “PubChem BioAssay data set” (2004).

The structures appear in SMILES notation. Active and inactive are the calls of the source.

By Ki is commonly meant the dissociation constant of the complex between target and ligand, obtained from inhibition or displacement. The term IC50 denotes the concentration needed to halve the response being measured. The EC50 is the concentration giving half of the maximal effect. A high value points to a less potent agent.

Chain of Dual specificity mitogen-activated protein kinase kinase 2 (P36507 whole entry): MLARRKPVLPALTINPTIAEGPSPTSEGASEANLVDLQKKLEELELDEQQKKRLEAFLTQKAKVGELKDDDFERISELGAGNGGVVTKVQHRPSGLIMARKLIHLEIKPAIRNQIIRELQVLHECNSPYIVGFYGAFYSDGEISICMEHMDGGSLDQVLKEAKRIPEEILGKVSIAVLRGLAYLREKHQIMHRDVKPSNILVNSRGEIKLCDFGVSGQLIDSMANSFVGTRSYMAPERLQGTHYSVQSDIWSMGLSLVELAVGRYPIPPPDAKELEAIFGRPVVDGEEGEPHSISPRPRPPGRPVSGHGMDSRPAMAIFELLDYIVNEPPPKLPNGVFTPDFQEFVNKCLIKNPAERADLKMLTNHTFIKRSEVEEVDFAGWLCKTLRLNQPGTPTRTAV
Chain of Homeodomain-interacting protein kinase 2 (Q9H2X6 whole entry): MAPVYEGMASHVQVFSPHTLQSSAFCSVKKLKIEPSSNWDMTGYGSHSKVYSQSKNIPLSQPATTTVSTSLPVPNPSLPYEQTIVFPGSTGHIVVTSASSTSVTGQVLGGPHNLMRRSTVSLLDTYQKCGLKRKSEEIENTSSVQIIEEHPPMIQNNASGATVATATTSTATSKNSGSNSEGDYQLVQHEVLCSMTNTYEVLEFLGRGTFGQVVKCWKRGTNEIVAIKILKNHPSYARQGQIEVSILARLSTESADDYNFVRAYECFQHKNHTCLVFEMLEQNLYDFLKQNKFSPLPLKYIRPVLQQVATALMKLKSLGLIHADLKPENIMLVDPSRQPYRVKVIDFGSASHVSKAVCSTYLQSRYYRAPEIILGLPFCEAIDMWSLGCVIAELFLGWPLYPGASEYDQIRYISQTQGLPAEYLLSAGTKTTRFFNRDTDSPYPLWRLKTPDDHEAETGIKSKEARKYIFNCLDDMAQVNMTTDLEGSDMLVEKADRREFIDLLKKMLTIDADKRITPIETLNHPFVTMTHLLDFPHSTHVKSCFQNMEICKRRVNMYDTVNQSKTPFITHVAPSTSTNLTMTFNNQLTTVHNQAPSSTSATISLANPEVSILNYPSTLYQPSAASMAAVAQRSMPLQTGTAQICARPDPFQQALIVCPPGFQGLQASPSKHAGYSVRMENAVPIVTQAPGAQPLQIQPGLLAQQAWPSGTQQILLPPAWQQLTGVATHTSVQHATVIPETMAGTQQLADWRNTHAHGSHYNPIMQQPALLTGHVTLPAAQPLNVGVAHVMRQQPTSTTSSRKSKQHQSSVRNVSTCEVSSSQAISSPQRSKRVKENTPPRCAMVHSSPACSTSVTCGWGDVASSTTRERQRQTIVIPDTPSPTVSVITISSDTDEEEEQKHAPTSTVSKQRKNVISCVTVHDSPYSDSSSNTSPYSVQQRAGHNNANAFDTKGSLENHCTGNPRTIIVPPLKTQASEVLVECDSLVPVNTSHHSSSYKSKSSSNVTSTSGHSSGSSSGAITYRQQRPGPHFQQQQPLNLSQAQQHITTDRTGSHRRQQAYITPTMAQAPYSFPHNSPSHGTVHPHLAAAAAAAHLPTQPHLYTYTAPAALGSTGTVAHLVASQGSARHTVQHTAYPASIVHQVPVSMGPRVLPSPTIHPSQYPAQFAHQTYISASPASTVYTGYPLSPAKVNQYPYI
Chain of Dual specificity mitogen-activated protein kinase kinase 1 (Q02750 whole entry): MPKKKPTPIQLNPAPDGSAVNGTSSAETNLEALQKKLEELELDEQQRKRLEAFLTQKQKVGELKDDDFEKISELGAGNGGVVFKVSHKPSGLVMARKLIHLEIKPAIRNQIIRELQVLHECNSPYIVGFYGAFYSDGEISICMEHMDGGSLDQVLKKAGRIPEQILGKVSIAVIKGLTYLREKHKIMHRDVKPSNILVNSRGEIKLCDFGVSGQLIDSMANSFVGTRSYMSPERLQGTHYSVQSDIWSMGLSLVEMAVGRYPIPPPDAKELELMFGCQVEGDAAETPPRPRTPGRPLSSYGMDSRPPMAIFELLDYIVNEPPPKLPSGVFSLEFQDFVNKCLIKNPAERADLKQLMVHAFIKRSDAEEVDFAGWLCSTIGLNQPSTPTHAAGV
Chain of Rho-associated protein kinase 1 (Q13464 whole entry): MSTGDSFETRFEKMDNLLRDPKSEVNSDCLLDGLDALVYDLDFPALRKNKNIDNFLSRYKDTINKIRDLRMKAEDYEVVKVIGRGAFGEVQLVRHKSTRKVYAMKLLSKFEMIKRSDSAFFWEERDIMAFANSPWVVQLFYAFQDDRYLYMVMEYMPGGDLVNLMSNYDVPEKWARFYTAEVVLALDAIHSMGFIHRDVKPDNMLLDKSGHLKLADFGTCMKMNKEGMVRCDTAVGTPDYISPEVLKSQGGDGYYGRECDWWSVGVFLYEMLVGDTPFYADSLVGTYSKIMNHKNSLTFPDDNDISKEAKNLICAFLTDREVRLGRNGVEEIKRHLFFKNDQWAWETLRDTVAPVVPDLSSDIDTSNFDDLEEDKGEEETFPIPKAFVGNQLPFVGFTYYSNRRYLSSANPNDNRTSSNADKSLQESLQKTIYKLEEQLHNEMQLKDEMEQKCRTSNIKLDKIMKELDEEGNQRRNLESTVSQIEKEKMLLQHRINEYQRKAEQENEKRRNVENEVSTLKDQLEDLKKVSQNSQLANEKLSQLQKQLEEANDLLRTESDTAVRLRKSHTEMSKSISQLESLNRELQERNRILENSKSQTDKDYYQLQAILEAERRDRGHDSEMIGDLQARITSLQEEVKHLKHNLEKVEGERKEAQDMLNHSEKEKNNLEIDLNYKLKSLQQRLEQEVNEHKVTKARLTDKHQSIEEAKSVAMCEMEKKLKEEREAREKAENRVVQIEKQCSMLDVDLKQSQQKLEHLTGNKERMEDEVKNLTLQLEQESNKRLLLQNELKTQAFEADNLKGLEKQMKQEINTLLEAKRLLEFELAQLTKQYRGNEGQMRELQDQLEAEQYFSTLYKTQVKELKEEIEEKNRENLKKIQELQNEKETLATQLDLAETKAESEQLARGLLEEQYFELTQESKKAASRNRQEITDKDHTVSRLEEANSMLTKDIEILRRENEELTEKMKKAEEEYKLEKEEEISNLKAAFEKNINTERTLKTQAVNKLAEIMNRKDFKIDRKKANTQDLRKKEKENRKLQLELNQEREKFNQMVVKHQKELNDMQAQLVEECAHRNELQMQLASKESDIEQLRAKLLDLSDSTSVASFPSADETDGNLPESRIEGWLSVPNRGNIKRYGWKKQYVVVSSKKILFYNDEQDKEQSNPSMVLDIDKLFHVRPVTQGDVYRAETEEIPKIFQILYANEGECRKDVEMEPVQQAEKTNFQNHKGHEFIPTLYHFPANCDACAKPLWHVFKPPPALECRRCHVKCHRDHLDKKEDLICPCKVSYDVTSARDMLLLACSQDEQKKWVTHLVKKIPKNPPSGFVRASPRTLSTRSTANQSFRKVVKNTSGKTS
Chain of Serine/threonine-protein kinase PLK3 (Q9H4B4 whole entry): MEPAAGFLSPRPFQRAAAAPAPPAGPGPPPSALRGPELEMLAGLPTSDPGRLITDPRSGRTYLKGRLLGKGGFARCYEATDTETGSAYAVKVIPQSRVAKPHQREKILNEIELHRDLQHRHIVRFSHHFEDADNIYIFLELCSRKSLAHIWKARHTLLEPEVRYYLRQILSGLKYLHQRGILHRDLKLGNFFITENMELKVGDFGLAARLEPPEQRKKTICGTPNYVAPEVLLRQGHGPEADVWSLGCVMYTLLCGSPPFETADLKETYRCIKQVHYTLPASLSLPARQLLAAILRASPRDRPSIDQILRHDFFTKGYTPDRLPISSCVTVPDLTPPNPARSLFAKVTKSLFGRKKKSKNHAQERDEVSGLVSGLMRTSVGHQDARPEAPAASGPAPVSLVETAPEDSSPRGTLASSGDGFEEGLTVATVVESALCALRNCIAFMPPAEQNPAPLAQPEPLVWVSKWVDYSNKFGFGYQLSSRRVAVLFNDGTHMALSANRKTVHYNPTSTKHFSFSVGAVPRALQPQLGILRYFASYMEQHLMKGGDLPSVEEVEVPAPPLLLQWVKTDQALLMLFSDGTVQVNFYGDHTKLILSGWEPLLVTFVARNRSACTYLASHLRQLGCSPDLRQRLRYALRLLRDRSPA

As to `COC(C(=O)N1Cc2[nH]nc(NC(=O)c3ccc(N4CCN(C)CC4)cc3)c2C1)c1ccccc1` (centres undefined), the Ki was > 7.94 µM (inactive) in [1] and > 3.16 µM (inactive) in [2].
On to `CC(C)(O)c1cn(-c2ccc3[nH]ncc3c2)nn1`, for which the Ki was 2 µM (active) in [3], 20 µM (active) in assay [4], 25.1 µM (active) in [5] and 0.794 µM (active) in assay [6].
As to `O=C1C2=[N+]([O-])[C@H]3CCCC[C@H]3[N+]([O-])=C2c2ccccc21`, the values for the IC50 in assay [7] and in [9] were 15.4 µM (active) and 16.8 µM (active), respectively. Besides, the EC50 in [8] was > 120 µM (not active).
On to `NC1CCC(Nc2nccc(-c3c[nH]c4ncccc34)n2)CC1` (centres undefined), for which the Ki in [10] was > 3.98 µM (inactive); in assay [11], 0.0398 µM (active); in assay [1] it was > 7.94 µM (inactive); in assay [2], 0.0158 µM (active); in assay [12], 0.398 µM (active).
`OCc1cc(-c2ccc3[nH]ncc3c2)on1`: the Ki was 0.1 µM (active) in assay [3]; 10 µM (active) in assay [4]; 15.8 µM (active) in assay [5]; 0.398 µM (active) in [6]; 100 µM (active) in assay [12].
